Seven molecules from patent US20130287856A1, “Drug Delivery Dispersion And Film Formed Therefrom” (priority 2010, published 2013) can be followed below.

SMILES strings stand for the structures.

A short description of this data set: Extractable percent of unreacted silicone, second evaluation (cure rate with active agents). Type of data set: physicochemical. As to conditions: for Cure Rate After 3 Min. (%) / Cure Rate After 120 Min. (%): active agent added to Dispersion 1 aged 1 week at 45° C., slope of extractable plot, lower values = higher reactivity; for effect of active agent on cure (in words): active agent in Dispersion 1, after 120 minutes. As to the method: After ageing, the samples are spread out onto silicon free Glassine paper and the water is allowed to evaporate such that the vinyl PDMS and SiH siloxane reaction and form films. More specifically, about 2 grams of each sample is spread using a 1.2 g/m^2 bar equipped with an automatic film application (type 4340 from Braive Instruments). At times from zero to 120 minutes, the percent of vinyl PDMS and SiH siloxane is determined using 30 ml of methylisobutyl ketone (MIBK). Additionally, silicone concentration on the Glassine paper resulting from reacted vinyl PDMS and SiH siloxane is determined by XRF using an Oxford Lab X-3000. The percent unreacted/extractable vinyl PDMS and SiH siloxane is plotted in an extractable plot set forth as FIG. 3. Additional samples of Dispersion 1 are aged for 1 week at 45° C. […] At this point, films are formed from these samples to determine an effect of the active agents on curing and reaction of the vinyl PDMS and SiH siloxane. More specifically, for these samples, an additional extractable plot is generated (not shown in the Figures) using the same method as described above. […] The results of these evaluations are set forth in Table 1 immediately below with lower values representing higher reactivity.

Regarding `[Cl][Ag]` [AgCl], the “Cure Rate After 3 Min. (%)” value is reported as 16.4% and the “Cure Rate After 120 Min. (%)” value is on record as 3.3%.
Turning to `CCN(CC)CC(=O)Nc1c(C)cccc1C` [Lidocaine, lidocaine], the “Cure Rate After 3 Min. (%)” value turned out to be 21.1% and the “Cure Rate After 120 Min. (%)” value was 4.9%.
For `Clc1ccccc1C(c1ccccc1)(c1ccccc1)n1ccnc1` [Clotrimazol, clotrimazol], in that order: 25.7% and 5.4%.
For `O=C(O)c1cccnc1` [Vitamin B3, vitamin B3], the “Cure Rate After 3 Min. (%)” value amounted to 43.3%, the “Cure Rate After 120 Min. (%)” value is reported as 21.8% and the “effect of active agent on cure (in words)” value is recorded as “slight inhibition of the cure”.
In the case of `CC(C)(CO)[C@@H](O)C(=O)NCCCO` [Dexpanthenol, dexpanthenol], the “Cure Rate After 3 Min. (%)” value was determined as 18.4% and the “Cure Rate After 120 Min. (%)” value is recorded as 4.8%.
For `Cn1c(=O)c2c(ncn2C)n(C)c1=O` [Caffeine, caffeine], in that order: 31.7% and 8.5%.
`O=C(O)c1ccccc1O` [Salicylic acid, salicylic acid]: the “Cure Rate After 3 Min. (%)” value is on record as 36.5%, the “Cure Rate After 120 Min. (%)” value came to 12.1% and the “effect of active agent on cure (in words)” value is “slight inhibition of the cure”.
